For 56 molecules, IC50 results are on record in BindingDB's records for doi:10.7270/Q2PR7TCX (The Scripps Research Institute Molecular Screening Center, 2007).

Where a name gives a salt, the structure may show the parent alone. Where only a bound is given, the exact number is not on record here.

By IC50 is commonly meant the concentration that gives 50% inhibition. A high value points to lower potency.

Steroidogenic factor 1, sequence (Q13285 whole entry, the tested form may be a part): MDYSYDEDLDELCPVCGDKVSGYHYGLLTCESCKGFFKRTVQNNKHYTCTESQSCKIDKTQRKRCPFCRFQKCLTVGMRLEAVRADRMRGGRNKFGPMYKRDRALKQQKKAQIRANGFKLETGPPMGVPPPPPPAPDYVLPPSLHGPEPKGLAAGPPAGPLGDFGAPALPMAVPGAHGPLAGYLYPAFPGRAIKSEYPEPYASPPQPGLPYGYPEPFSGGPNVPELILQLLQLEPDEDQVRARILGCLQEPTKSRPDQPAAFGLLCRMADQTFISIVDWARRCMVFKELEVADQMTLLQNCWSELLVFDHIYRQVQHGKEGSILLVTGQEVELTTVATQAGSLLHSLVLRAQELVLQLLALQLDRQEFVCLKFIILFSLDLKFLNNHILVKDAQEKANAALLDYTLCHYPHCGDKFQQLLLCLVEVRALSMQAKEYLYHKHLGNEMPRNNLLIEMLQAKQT

The first experiment addresses Steroidogenic factor 1 (Homo sapiens, UniProt Q13285). The experiment can be described thus: SF-1 inhibitors in Gal4 reporter counter-screen, dose response, counter-screen for RORA inhibitor project, cell-based, CHO-K1, Gal4-SF-1 LBD, luciferase luminescence (AID 611).
Settings: not given
In general terms: A counterscreen serves to expose hits that act by an unwanted route or on another target.
`c1ccc(-c2noc(-c3ccc4ccccc4c3)n2)nc1` [2-[5-(2-naphthyl)-1,2,4-oxadiazol-3-yl]pyridine] yielded an IC50 of 0.867 µM. On the same count and under the same terms, under `COc1cc(CC(NC(C)=O)C(=O)NC2CCN(c3nc(C)cc(C)c3C#N)CC2)cc(OC)c1` (stereo unspecified) [2-Acetylamino-N-(3'-cyano-4',6'-dimethyl-3,4,5,6-tetrahydro-2H-[1,2']bipyridinyl-4-yl)-3-(3,5-dimethoxy-phenyl)-propionamide] stands over 99 µM.

Take `CC(=O)c1c(C)[nH]c(C(=O)Nc2ccc(C)cn2)c1C` [SMR000026816]: inhibition was half-maximal at 4.92 µM (IC50). The same measure, in the same setting: then `COc1ccc(CNC(=O)c2cc3c(C)nc4ccccc4c3o2)c(OC)c1` [MLS000118441], with over 3.67 µM.

For the molecule `Nc1cccc(-c2nc3ccc(N)cc3s2)c1` [2-(3-Amino-phenyl)-benzothiazol-6-ylamine], the IC50 is over 3.67 µM. The same measure, in the same setting: then `N#CC(C#N)=c1ccc2c(c1)NC1(CCCCC1)N=2` [2-spiro[3H-benzimidazole-2,1'-cyclohexane]-5-ylidenepropanedinitrile], with 9.07 µM. For the molecule `Cc1ccc(-c2nnc(SCC(=O)Nc3ccccc3F)o2)cc1` [MLS000114725], the IC50 turned out to be 9.9 µM. Molecule `COc1ccccc1-c1cc(C(F)(F)F)nc(S(=O)(=O)CCCC(=O)NC(C)C)n1` [4-[4-(2-methoxyphenyl)-6-(trifluoromethyl)pyrimidin-2-yl]sulfonyl-N-propan-2-yl-butanamide] had an IC50 of 9.35 µM. On the same count and under the same terms, under `O=C(CSC1=NCCS1)Nc1ccnc2ccccc12` [2-(4,5-dihydro-1,3-thiazol-2-ylsulfanyl)-N-quinolin-4-yl-ethanamide] stands 5.95 µM; under `CC(NC(=O)Nc1nnc(C(F)(F)F)s1)(C(F)(F)F)C(F)(F)F` [1-(1,1,1,3,3,3-hexafluoro-2-methylpropan-2-yl)-3-[5-(trifluoromethyl)-1,3,4-thiadiazol-2-yl]urea], 5.6 µM. Still for that read-out and setting: then `CCc1nn2cc(-c3ccccc3)nc2s1` [2-ethyl-6-phenyl-imidazo[2,1-b][1,3,4]thiadiazole], with over 3.67 µM. On the same count and under the same terms, then `COc1cccc2c1C(=O)c1c(O)c3c(c(O)c1C2=O)C[C@@](O)(C(C)=O)C[C@@H]3O[C@H]1C[C@H](N)[C@H](O)[C@H](C)O1` [(7S,9S)-9-acetyl-7-[(2R,4S,5S,6S)-4-amino-5-hydroxy-6-methyloxan-2-yl]oxy-6,9,11-trihydroxy-4-methoxy-8,10-dihydro-7H-tetracene-5,12-dione;hydrochloride], with 0.409 µM. On to `Cc1cccc(NC(=O)Nc2ccc(C#N)cc2)n1` [1-(4-cyanophenyl)-3-(6-methyl-2-pyridinyl)urea], for which half-maximal inhibition (IC50) was put at 6.32 µM. As to `O=C(O)CCCCCn1c(O)csc1=S` [6-(4-keto-2-thioxo-thiazolidin-3-yl)hexanoic acid], the IC50 was over 99 µM.

For `CCC(NC(=O)Nc1nnc(C(F)(F)F)s1)(C(F)(F)F)C(F)(F)F`, the midpoint of inhibition, the IC50, lay at 2.74 µM. The same measure, in the same setting: then `Cc1ccc(-c2nsc3c(N4CCC(C(N)=O)CC4)ncnc23)cc1` [1-(3-p-Tolyl-isothiazolo[4,5-d]pyrimidin-7-yl)-piperidine-4-carboxylic acid amide], with 1.53 µM. Still for that read-out and setting: under `O=c1cc(-c2c(F)c(F)c(F)c(F)c2F)oc2c(F)c(F)c(F)c(F)c12` [5,6,7,8-tetrafluoro-2-(2,3,4,5,6-pentafluorophenyl)-1-benzopyran-4-one] stands 4.81 µM.

For the molecule `COCCNC(=O)CSCc1nc(-c2ccc(SC)cc2)oc1C` [MLS000089367], the IC50 came to 0.656 µM. Same read-out and setting: under `Fc1ccc2[nH]c3c(N4CCN(Cc5ccc6c(c5)OCO6)CC4)ncnc3c2c1` [4-[4-(1,3-benzodioxol-5-ylmethyl)-1-piperazinyl]-8-fluoro-5H-pyrimido[5,4-b]indole] stands 3.38 µM.

As to `Cc1ccc(-c2cc3c(nn2)-c2ccccc2C3=O)cc1` [3-(4-methylphenyl)-5H-indeno[1,2-c]pyridazin-5-one], half-maximal inhibition (IC50) was put at 2.62 µM.

In turn, `c1ccc2nc(-c3nc4ccccc4o3)ccc2c1` [2-(1,3-benzoxazol-2-yl)quinoline] returned an IC50 of 5.39 µM.

The molecule `COc1ccc(-c2nc(-c3ccccc3)no2)c(OC)c1` [5-(2,4-dimethoxyphenyl)-3-phenyl-1,2,4-oxadiazole] gave an IC50 of 2.82 µM. Regarding `COc1ccccc1-n1nnnc1S(=O)(=O)Cc1ccc(Cl)cc1` [5-(4-chlorobenzyl)sulfonyl-1-(2-methoxyphenyl)tetrazole], inhibition was half-maximal at 7.09 µM (IC50). Still for that read-out and setting: then `O=S1(=O)C=C(Sc2nc3ccccc3s2)c2ccccc21` [2-[(1,1-dioxido-1-benzothien-3-yl)thio]-1,3-benzothiazole], with 2.67 µM. The same measure, in the same setting: then `O=C(Nc1ccc(N2CCOCC2)cc1)c1cnsn1` [MLS000063695], with 6.57 µM; and `CCOc1cc(C(=O)CSc2nnc(CNc3ccc(Cl)cc3)o2)ccc1NC(=O)CC` [MLS000032332], with 7.64 µM. `O=C(O)c1cccc(COc2ccccc2Cl)c1` [3-[(2-chloranylphenoxy)methyl]benzoic acid] returned an IC50 of 0.582 µM. The same measure, in the same setting: then `COc1ccc(-c2cc(C(F)(F)F)nc(S(C)(=O)=O)n2)cc1OC` [4-(3,4-dimethoxyphenyl)-2-methylsulfonyl-6-(trifluoromethyl)pyrimidine], with 7.15 µM; and `CCc1ccc(-c2cn3nc(C)c(C)nc3n2)cc1` [6-(4-ethylphenyl)-2,3-dimethyl-imidazo[1,2-b][1,2,4]triazine], with 1.73 µM. In turn, `CCOc1ccc(-c2nc(CSCC(=O)NCc3ccco3)c(C)o2)cc1` [2-({[2-(4-ethoxyphenyl)-5-methyl-1,3-oxazol-4-yl]methyl}thio)-N-(2-furylmethyl)acetamide] showed an IC50 of 0.259 µM.

`O=C(CSc1nnnn1-c1ccccc1)Nc1nsc(-c2ccc(Cl)cc2)n1` [MLS000085595] showed an IC50 of 5.78 µM. Molecule `O=C(c1ccc(Cl)cc1)N1CCCCC(Sc2nnc(-c3ccc4c(c3)OCO4)o2)C1=O` (stereo unspecified) [3-[[5-(1,3-benzodioxol-5-yl)-1,3,4-oxadiazol-2-yl]sulfanyl]-1-(4-chlorobenzoyl)azepan-2-one] registered an IC50 of 1.46 µM. The same measure, in the same setting: under `c1ccc(-c2nc(N3CCCCCC3)c3ccccc3n2)nc1` [SMR000046752] stands 4.13 µM. The same measure, in the same setting: under `COc1ccc(CCNc2c(C)c(C)nc3ncnn23)cc1` [(5,6-Dimethyl-[1,2,4]triazolo[1,5-a]pyrimidin-7-yl)-[2-(4-methoxy-phenyl)-ethyl]-amine] stands 6.45 µM; under `COc1ccc(C(=O)Nn2c(SCC(=O)NCc3ccco3)nc3ccccc3c2=O)cc1` [MLS000097349], 5.3 µM. On the same count and under the same terms, under `Cc1ccnc(NC(=O)CCCOc2cc(=O)n(C)c3ccccc23)c1` [4-(1-methyl-2-oxidanylidene-quinolin-4-yl)oxy-N-(4-methylpyridin-2-yl)butanamide] stands 8.98 µM. `CC1CCN(c2nc3ccc(C(=O)O)cc3s2)CC1` [2-(4-methyl-1-piperidinyl)-1,3-benzothiazole-6-carboxylic acid] returned an IC50 of 0.329 µM. The same measure, in the same setting: under `Fc1ccc(-c2nnc(NC3=NCCCCC3)o2)cc1` [5-(4-fluorophenyl)-N-(3,4,5,6-tetrahydro-2H-azepin-7-yl)-1,3,4-oxadiazol-2-amine] stands over 3.67 µM; under `Cc1ccc(-c2nc3nc4ccccc4nc3n2Cc2ccco2)cc1` [3-(2-furanylmethyl)-2-(4-methylphenyl)imidazo[4,5-b]quinoxaline], over 33 µM. Still for that read-out and setting: under `COc1cc(CSc2nnnn2-c2ccc(C)cc2)cc(OC)c1OC` [1-(4-methylphenyl)-5-[(3,4,5-trimethoxybenzyl)thio]-1H-tetrazole] stands 4.52 µM; under `CN(C)c1ccc(NC(=S)c2ccccn2)cc1` [MLS000111989], 3.04 µM. Same read-out and setting: under `Cc1ccc(NC(=O)Cc2nn(C)c(=O)c3ccccc23)cc1F` [MLS000047015] stands 3.9 µM; under `Cc1oc2nc(SCC(=O)NCc3cccnc3)nc(N)c2c1C` [2-(4-amino-5,6-dimethylfuro[2,3-d]pyrimidin-2-yl)sulfanyl-N-(pyridin-3-ylmethyl)acetamide], over 99 µM; under `CCOc1ccc(OCc2cccc(C(=O)N3CCOCC3)c2)cc1` [4-{3-[(4-ethoxyphenoxy)methyl]benzoyl}morpholine], 4.35 µM. The molecule `COc1ccc(O)c(C(=O)CC(=O)c2ccc(F)cc2)c1` [1-(4-fluorophenyl)-3-(2-hydroxy-5-methoxy-phenyl)propane-1,3-dione] gave an IC50 of over 11 µM.

Staying with this experiment, now noted: inactive by the depositor's call.
`Fc1ccc2[nH]c3c(N4CCSCC4)ncnc3c2c1` [MLS000078401] had an IC50 of 10.4 µM. Regarding `Cc1ccc(S(=O)(=O)NCc2ccncc2)cc1` [4-Methyl-N-pyridin-4-ylmethyl-benzenesulfonamide], half-maximal inhibition (IC50) required 11.6 µM.

On to `CS(=O)(=O)c1nc(-c2ccco2)cc(C(F)(F)F)n1` [MLS000044646], for which half-maximal inhibition (IC50) required 10.8 µM. The same measure, in the same setting: then `Cc1ccc2nc(C(F)(F)F)c(C#N)c(N)c2c1` [4-amino-6-methyl-2-(trifluoromethyl)-3-quinolinecarbonitrile], with 11.6 µM; and `CCCOc1ccccc1C1CC(=O)Nc2cc3c(cc21)OCCO3` (stereo unspecified) [9-(2-propoxyphenyl)-2,3,8,9-tetrahydro[1,4]dioxino[2,3-g]quinolin-7(6H)-one], with 10.6 µM. Still for that read-out and setting: under `Cc1cc(C)n2nc(SCC(=O)c3cc(C)n(-c4cc(C)on4)c3C)nc2n1` [1-[2,5-dimethyl-1-(5-methyl-1,2-oxazol-3-yl)pyrrol-3-yl]-2-[(5,7-dimethyl-[1,2,4]triazolo[1,5-a]pyrimidin-2-yl)sulfanyl]ethanone] stands 16.8 µM; under `CCCNc1nc2c(c(=O)n(C)c(=O)n2C)n1Cc1cccc(C)c1` [1,3-Dimethyl-7-(3-methyl-benzyl)-8-propylamino-3,7-dihydro-purine-2,6-dione], 21.5 µM; under `Cc1ccc(S(=O)(=O)Nc2ccc3ncccc3c2)cc1` [4-methyl-N-(6-quinolinyl)benzenesulfonamide], 12.4 µM. On the same count and under the same terms, then `Cc1ccccc1NC(=O)N1CCCC(c2nc(-c3ccc(C(C)C)cc3)no2)C1` (stereo unspecified) [3-[3-(4-Isopropyl-phenyl)-[1,2,4]oxadiazol-5-yl]-piperidine-1-carboxylic acid o-tolylamide], with 12.4 µM; and `Cc1ccc2[nH]c3c(N4CCN(Cc5ccc6c(c5)OCO6)CC4)ncnc3c2c1`, with 10.2 µM. `Cc1ccccc1OCC(=O)Nc1ccc(N2CCN(C(=O)C(C)C)CC2)c(Cl)c1` [MLS000034491] displayed an IC50 of 14 µM. This IC50 and that of the molecule before are within 1.5-fold of each other.
